Patent US8927500B2, “Peptidomimetic macrocycles” (Aileron Therapeutics, Inc., priority 2012, dated 2015)
Where a SMILES comes first, the peptide text is derived from it. Bridges are numbered along the chain shown (N, C = ends). [ ]: non-standard residue; d: D form. 2Nal = N[C@@H](Cc1ccc2ccccc2c1)C(=O)O; R8 = C=CCCCCCC[C@@](C)(N)C(=O)O; Cba = N[C@@H](CC1CCC1)C(=O)O; S5 = C=CCCC[C@](C)(N)C(=O)O

Legend:
SJSA-1 cells = assay: Cell lysis by peptidomimetic macrocycles (LDH release); type: cell-based; details: 1 h at 37C
Experimental: On the day of the assay, media was exchanged with RPMI 1% FBS media, 90 uL of media per well.
10 mM stock solutions of the peptidomimetic macrocycles were prepared in 100% DMSO.
The negative control (non-lytic) sample was 0.5% DMSO alone and positive control (lytic) samples include 10 uM Melittin and 1% Triton X-100.
Cell plates were incubated for 1 hour at 37C. After the 1 hour incubation, the morphology of the cells is examined by microscope and then the plates were centrifuged at 1200 rpm for 5 minutes at room temperature. 40 uL of supernatant for each peptidomimetic macrocycle and control sample is transferred to clear assay plates.

MDMX = target: T1, MDMX (Homo sapiens, UniProt O15151); assay: Competitive fluorescence polarization assay for MDMX; type: binding; details: competitive FP assay; for IC50: read-out: IC50 (MDMX); for Ki: read-out: Ki (MDMX)
T1 sequence (O15151 1-125): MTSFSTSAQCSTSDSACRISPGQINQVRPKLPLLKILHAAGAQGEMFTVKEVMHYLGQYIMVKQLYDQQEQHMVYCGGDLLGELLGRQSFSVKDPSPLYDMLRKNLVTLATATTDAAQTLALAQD

Caspase 3 = Caspase 3 detection assay in SJSA1 cells; type: cell-based; details: 48 h, Caspase 3 activation over DMSO-treated cells; for caspase 0.3 uM: 0.3 uM peptide; for caspase 3 uM: 3 uM peptide; for caspase 10 uM: 10 uM peptide; for caspase 30 uM: 30 uM peptide; for caspase 1 uM: 1 uM peptide
MDM2 = MDM2 (Homo sapiens, UniProt Q00987); assay: Competitive fluorescence polarization assay for MDM2; type: binding; details: competitive FP assay, MDM2
MDM2, sequence (Q00987 1-125): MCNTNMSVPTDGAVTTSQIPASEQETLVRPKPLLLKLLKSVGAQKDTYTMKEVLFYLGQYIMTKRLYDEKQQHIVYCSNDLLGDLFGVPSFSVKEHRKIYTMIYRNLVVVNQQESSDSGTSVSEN

Structure (SMILES) | 6.25 uM % Lysed cells (1 h LDH) (SJSA-1 cells) [%] | 25 uM % Lysed cells (1 h LDH) (SJSA-1 cells) [%] | 50 uM % Lysed cells (1 h LDH) (SJSA-1 cells) [%] | IC50 (MDMX) [nM] | Ki (MDMX) [nM] | caspase 0.3 uM (Caspase 3) | caspase 3 uM (Caspase 3) | caspase 10 uM (Caspase 3) | caspase 30 uM (Caspase 3) | IC50 (MDM2; IC50 (MDM2)) [nM] | Ki (MDM2; Ki (MDM2)) [nM] | caspase 1 uM (Caspase 3)
CC(=O)N[C@@H](CC(C)C)C(=O)N[C@H](C(=O)N[C@@H](Cc1ccccc1)C(=O)N[C@]1(C)CCCCCCC=CCCC[C@@](C)(C(=O)N[C@@H](CO)C(=O)N[C@@H](C)C(=O)N[C@@H](C)C(N)=O)NC(=O)[C@H](CC2CCCCC2)NC(=O)[C@H](CCC(N)=O)NC(=O)[C@H](C)NC(=O)[C@H](Cc2c[nH]c3ccccc23)NC(=O)[C@H](Cc2ccc(O)cc2)NC(=O)[C@H](CCC(=O)O)NC1=O)[C@@H](C)O (single isomer, unassigned) [compound 148] | 0 | −1 | 0 | 100 to 1000 | 10 to 100 | 1 | 11 | 23 | 31 | – | – | –
CC(=O)N[C@@H](CC(C)C)C(=O)N[C@H](C(=O)N[C@@H](Cc1ccccc1)C(=O)N[C@]1(C)CCCCCCC=CCCC[C@@](C)(C(=O)N[C@@H](C)C(=O)N[C@@H](C)C(=O)N[C@@H](C)C(=O)N[C@@H](C)C(=O)N[C@@H](C)C(=O)N[C@@H](C)C(=O)N[C@H](C)C(N)=O)NC(=O)[C@H](CC(C)C)NC(=O)[C@H](CCC(N)=O)NC(=O)[C@H](C)NC(=O)[C@H](Cc2c[nH]c3ccccc23)NC(=O)[C@H](Cc2ccc(O)cc2)NC(=O)[C@H](C)NC1=O)[C@@H](C)O (single isomer, unassigned) [compound 316] | 0 | 0 | 1 | – | – | 6.5 | 21 | 32 | 32.5 | < 10 | < 10 | 10.5
CC(=O)N[C@@H](CC(C)C)C(=O)N[C@H](C(=O)N[C@@H](Cc1ccccc1)C(=O)N[C@]1(C)CCCCCCC=CCCC[C@@](C)(C(=O)N[C@@H](CO)C(=O)N[C@@H](C)C(=O)N[C@@H](C)C(=O)N[C@H](C)C(N)=O)NC(=O)[C@H](CC2CCC2)NC(=O)[C@H](CCC(N)=O)NC(=O)[C@H](C)NC(=O)[C@H](Cc2c[nH]c3ccccc23)NC(=O)[C@H](Cc2ccc(O)cc2)NC(=O)[C@H](CCC(=O)O)NC1=O)[C@@H](C)O (single isomer, unassigned) [compound 353] | 0 | 0 | 0 | 10 to 100 | < 10 | 1 | 5 | 7 | 30 | – | – | 2
CC(=O)N[C@@H](CC(C)C)C(=O)N[C@H](C(=O)N[C@@H](Cc1ccc(F)c(F)c1)C(=O)N[C@]1(C)CCCCCC/C=C/CCC[C@@](C)(C(=O)N[C@@H](CO)C(=O)N[C@@H](C)C(=O)N[C@@H](C)C(N)=O)NC(=O)[C@H](CCC(C)C)NC(=O)[C@H](CCC(N)=O)NC(=O)[C@H](C)NC(=O)[C@H](Cc2c[nH]c3ccccc23)NC(=O)[C@H](Cc2ccc(O)cc2)NC(=O)[C@H](CCC(=O)O)NC1=O)[C@@H](C)O [compound 160] | −1 | −1 | 1 | – | – | 2 | 10 | 16 | 31 | – | – | –
CC(=O)N[C@@H](CC(C)C)C(=O)N[C@H](C(=O)N[C@@H](Cc1ccccc1)C(=O)N[C@]1(C)CCCCCCC=CCCC[C@@](C)(C(=O)N[C@@H](C)C(=O)N[C@@H](Cc2c[nH]cn2)C(=O)N[C@@H](Cc2ccccc2)C(=O)N[C@@H](C)C(N)=O)NC(=O)[C@H](CC(C)C)NC(=O)[C@H](CCC(N)=O)NC(=O)[C@H](C)NC(=O)[C@H](Cc2c[nH]c3ccccc23)NC(=O)[C@H](Cc2c[nH]cn2)NC(=O)[C@H](C)NC1=O)[C@@H](C)O [compound 183] (Ac-LTF[R8]AHWAQL[S5]AHFA-NH2; staple 4-11) | 2 | 0 | 3 | – | – | 1 | 1 | 4 | 8 | – | – | –
CC(=O)N[C@@H](CC(C)C)C(=O)N[C@H](C(=O)N[C@@H](Cc1ccccc1)C(=O)N[C@]1(C)CCCCCCC=CCCC[C@@](C)(C(=O)N[C@@H](CO)C(=O)N[C@@H](C)C(=O)N[C@@H](C)C(N)=O)NC(=O)[C@H](CC2CCC2)NC(=O)[C@H](CCC(N)=O)NC(=O)[C@H](C)NC(=O)[C@H](Cc2ccc3ccccc3c2)NC(=O)[C@H](Cc2ccc(O)cc2)NC(=O)[C@H](CCC(=O)O)NC1=O)[C@@H](C)O [compound 254] (Ac-LTF[R8]EY[2Nal]AQ[Cba][S5]SAA-NH2; staple 4-11) | 11 | 60 | 75 | 100 to 1000 | 10 to 100 | 1 | 7 | 14 | 22 | – | – | 3
CC(=O)N[C@@H](CC(C)C)C(=O)N[C@H](C(=O)N[C@@H](Cc1ccccc1)C(=O)N[C@]1(C)CCCCCC/C=C/CCC[C@@](C)(C(=O)N[C@@H](C)C(=O)N[C@@H](C)C(=O)N[C@@H](C)C(=O)N[C@@H](C)C(=O)N[C@@H](C)C(=O)N[C@H](C)C(N)=O)NC(=O)[C@H](CC(C)C)NC(=O)[C@H](CCC(N)=O)NC(=O)[C@H](C)NC(=O)[C@H](Cc2c[nH]c3ccccc23)NC(=O)[C@H](Cc2ccc(O)cc2)NC(=O)[C@H](CCC(=O)O)NC1=O)[C@@H](C)O [compound 331] (Ac-LTF[R8]EYWAQL[S5]AAAAA[dA]-NH2; staple (E) 4-11) | 0 | 0 | 0 | – | – | 4.5 | 11 | 14.5 | 30.5 | – | – | 8
